{"source": "ChEMBL document CHEMBL1201862", "about": "“PubChem BioAssay data set” (2004)", "note": "The source made the active and inactive calls.", "data": [{"molecular_target": "Luciferin 4-monooxygenase (Photinus pyralis, UniProt P08659)", "sequence (P08659 whole entry)": "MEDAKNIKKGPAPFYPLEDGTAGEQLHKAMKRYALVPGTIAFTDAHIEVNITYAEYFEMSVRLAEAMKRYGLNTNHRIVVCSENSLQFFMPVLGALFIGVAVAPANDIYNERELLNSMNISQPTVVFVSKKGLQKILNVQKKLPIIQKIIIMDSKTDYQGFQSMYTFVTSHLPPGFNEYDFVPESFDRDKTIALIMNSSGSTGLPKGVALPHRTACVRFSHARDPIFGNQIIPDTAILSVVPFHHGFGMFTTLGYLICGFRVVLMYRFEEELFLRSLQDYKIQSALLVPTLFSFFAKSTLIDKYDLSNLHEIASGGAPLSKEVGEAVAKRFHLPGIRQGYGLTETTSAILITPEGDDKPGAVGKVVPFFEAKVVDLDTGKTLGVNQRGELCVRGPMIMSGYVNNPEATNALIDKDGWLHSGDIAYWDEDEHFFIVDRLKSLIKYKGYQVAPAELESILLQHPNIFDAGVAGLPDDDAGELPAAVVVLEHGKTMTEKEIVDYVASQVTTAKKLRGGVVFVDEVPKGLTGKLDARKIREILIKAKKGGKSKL", "assay": "inhibition of purified Photinus pyralis luciferase – biochemical, luminescence, dose response (AID 1891)", "settings": "not given", "values": [{"smiles": "Cc1c(O)ccc(/C=N/Nc2ncccc2[N+](=O)[O-])c1O", "EC50": "0.176 µM (active)"}, {"smiles": "CCc1ccccc1N(CC(=O)N/N=C/c1ccc(OC(=O)OC)c(OC)c1)S(C)(=O)=O", "EC50": "> 112 µM (not active)"}, {"smiles": "Cc1cccc(Oc2nc3ccccn3c(=O)c2/C=C(\\C#N)C(=O)NC2CCS(=O)(=O)C2)c1C", "note": "(centres undefined)", "EC50": "> 112 µM (not active)"}, {"smiles": "Cc1onc(-c2c(F)cccc2Cl)c1C(=O)NCC1COc2ccccc2O1", "note": "(centres undefined)", "EC50": "> 112 µM (not active)"}, {"smiles": "Cc1cc2nc(-c3ccc(NC(=O)c4cccnc4)cc3)oc2cc1C", "EC50": "> 112 µM (not active)"}]}, {"tested_on": "not listed separately", "assay": "Luminescence Cell-Based Dose Confirmation HTS to Identify Inhibitors of Platelet Dense Granule Release. [Related pubchem assays: 1663 (Primary HTS), 1678 (Summary of Project)]", "format": "functional", "settings": "not given", "values": [{"smiles": "Cc1c(O)ccc(/C=N/Nc2ncccc2[N+](=O)[O-])c1O", "EC50": "1.12 µM (active)"}, {"smiles": "CCc1ccccc1N(CC(=O)N/N=C/c1ccc(OC(=O)OC)c(OC)c1)S(C)(=O)=O", "EC50": "43.7 µM (active)"}, {"smiles": "Cc1cccc(Oc2nc3ccccn3c(=O)c2/C=C(\\C#N)C(=O)NC2CCS(=O)(=O)C2)c1C", "note": "(centres undefined)", "EC50": "4.44 µM (active)"}, {"smiles": "Cc1onc(-c2c(F)cccc2Cl)c1C(=O)NCC1COc2ccccc2O1", "note": "(centres undefined)", "EC50": "> 112 µM (not active)"}, {"smiles": "Cc1cc2nc(-c3ccc(NC(=O)c4cccnc4)cc3)oc2cc1C", "EC50": "> 112 µM (not active)"}]}, {"molecular_target": "Nonstructural protein 1 (Influenza A virus, UniProt Q194T2)", "sequence (Q194T2 whole entry)": "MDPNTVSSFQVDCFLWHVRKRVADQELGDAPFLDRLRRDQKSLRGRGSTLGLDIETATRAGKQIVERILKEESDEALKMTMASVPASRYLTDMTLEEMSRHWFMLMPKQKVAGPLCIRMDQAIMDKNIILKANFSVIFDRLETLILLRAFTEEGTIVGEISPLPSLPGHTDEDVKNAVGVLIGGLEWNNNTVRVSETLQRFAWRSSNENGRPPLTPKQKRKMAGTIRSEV", "assay": "not given", "format": "functional, Influenza A virus (A/California/07/2009(H1N1))", "settings": "not given", "values": [{"smiles": "COc1ccc(N2CCN(CCCNC(=O)c3cc4sccc4n3C)CC2)cc1", "IC50": "39.4 µM (active)"}, {"smiles": "CC1CCCN(C(=O)c2ccc3c(c2NCCO)C(=O)c2ccccc2C3=O)C1", "note": "(centres undefined)", "IC50": "22 µM (active)"}, {"smiles": "O=C1/C(=C\\c2ccc(-c3ccccc3[N+](=O)[O-])o2)C(c2ccccc2)=NN1c1ccccc1", "IC50": "21.3 µM (active)"}]}, {"molecular_target": "T1, Heat shock factor protein 1 (Mus musculus, UniProt P38532)", "T1 sequence (P38532 whole entry)": "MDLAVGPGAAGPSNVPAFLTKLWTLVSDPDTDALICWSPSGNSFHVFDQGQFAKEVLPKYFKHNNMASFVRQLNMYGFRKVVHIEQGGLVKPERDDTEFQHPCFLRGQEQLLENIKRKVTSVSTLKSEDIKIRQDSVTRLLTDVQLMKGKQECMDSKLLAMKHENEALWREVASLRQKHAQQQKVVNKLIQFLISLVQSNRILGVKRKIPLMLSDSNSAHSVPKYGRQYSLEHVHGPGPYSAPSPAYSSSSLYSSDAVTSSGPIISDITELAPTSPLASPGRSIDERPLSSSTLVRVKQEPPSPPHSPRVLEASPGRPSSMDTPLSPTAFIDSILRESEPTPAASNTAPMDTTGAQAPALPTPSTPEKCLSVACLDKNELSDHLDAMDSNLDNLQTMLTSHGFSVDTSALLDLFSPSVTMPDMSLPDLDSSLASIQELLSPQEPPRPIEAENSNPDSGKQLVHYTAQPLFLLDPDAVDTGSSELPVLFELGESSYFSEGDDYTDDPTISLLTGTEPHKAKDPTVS", "assay": "enhancement of HSF1-driven luciferase signal – cell-based, NIH3T3, luminescence, dose retest, confirmation (AID 435004);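 note: stress induced by proteasome inhibitor MG132 added 30 min after compound; actives raise luminescence as potentiators of the MG132 stress response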", "format": "functional", "settings": "not given", "values": [{"smiles": "Cc1c(O)ccc(/C=N/Nc2ncccc2[N+](=O)[O-])c1O", "EC50": "> 260 µM (inconclusive)"}]}, {"tested_on": "not listed separately", "assay": "cells", "format": "functional", "settings": "not given", "values": [{"smiles": "O=C(COC(=O)c1ccccc1Cl)NCCC1=CCCCC1", "IC50": "29.9 µM (active)"}, {"smiles": "Cc1cccc(C(=O)Nc2nnc(-c3cccnc3)o2)c1", "IC50": "9.52 µM (active)"}, {"smiles": "O=c1c(=Nc2ccccc2O)c(=O)c2ccccc12", "IC50": "3.81 µM (active)"}]}, {"molecular_target": "Cytochrome P450 2C19 (Homo sapiens, UniProt P33261)", "sequence (P33261 whole entry)": "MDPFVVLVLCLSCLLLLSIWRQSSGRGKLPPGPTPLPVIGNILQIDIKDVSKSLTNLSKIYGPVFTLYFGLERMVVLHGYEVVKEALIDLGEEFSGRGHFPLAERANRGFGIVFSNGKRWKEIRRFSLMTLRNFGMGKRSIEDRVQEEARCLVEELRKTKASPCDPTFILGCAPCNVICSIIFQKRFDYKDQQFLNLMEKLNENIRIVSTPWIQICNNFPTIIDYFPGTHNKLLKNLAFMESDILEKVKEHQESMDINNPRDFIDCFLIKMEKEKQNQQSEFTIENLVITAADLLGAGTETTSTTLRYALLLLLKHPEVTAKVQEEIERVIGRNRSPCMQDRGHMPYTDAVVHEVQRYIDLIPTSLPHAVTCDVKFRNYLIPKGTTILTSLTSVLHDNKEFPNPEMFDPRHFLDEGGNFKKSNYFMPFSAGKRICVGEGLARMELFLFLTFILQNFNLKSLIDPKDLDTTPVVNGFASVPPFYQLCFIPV", "assay": "Cytochrome panel assay with activity outcomes. Panel member name: p450-cyp2c19 Compounds with AC50 equal or less than 10 uM are considered active", "format": "functional", "settings": "read-out: AC50", "values": [{"smiles": "O=C(c1ccco1)N1CCC[C@@]2(CCN(Cc3nccs3)C2)C1", "AC50": "39.8 µM (inconclusive)"}, {"smiles": "Cc1ccc(N2C(=O)/C(=C/N3CCN(C(=O)c4ccco4)CC3)C(=O)NC2=S)cc1C", "AC50": "39.8 µM (inconclusive)"}, {"smiles": "Cc1cc(C(=O)NCc2ccccc2)no1", "AC50": "28.2 µM (inconclusive)"}, {"smiles": "Cc1noc(COc2ccc(OCc3nc(C)no3)cc2)n1", "AC50": "17.8 µM (inconclusive)"}]}, {"tested_on": "INS1", "assay": "INS-1E survival protection against cytokine death – cell-based, luminescence, retest, dose response (AID 449756);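 note: cell death triggered by IL-1 beta plus TNF-alpha plus IFN-gamma mixture; protective hits raise ATP signal compared with cytokine alone wells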", "format": "functional", "settings": "Rattus norvegicus, INS1", "values": [{"smiles": "Cc1cc2nc(-c3ccc(NC(=O)c4cccnc4)cc3)oc2cc1C", "AC50": "3.87 µM (active)"}]}, {"tested_on": "not listed separately", "assay": "non-specific 3'UTR reporter inhibition in Clone20-Shn3RL – cell-based, Renilla luciferase, cherry-picked, counter-screen for Shn3 inhibitor project, dose response (AID 624133)", "format": "functional", "settings": "not given", "values": [{"smiles": "CC(C)(C)N(Cc1ccccc1)C(=O)COC(=O)CCc1c[nH]c2ccccc12", "AC50": "25.9 µM (active)"}]}, {"molecular_target": "Cytochrome P450 2D6 (Homo sapiens, UniProt P10635)", "sequence (P10635 whole entry)": "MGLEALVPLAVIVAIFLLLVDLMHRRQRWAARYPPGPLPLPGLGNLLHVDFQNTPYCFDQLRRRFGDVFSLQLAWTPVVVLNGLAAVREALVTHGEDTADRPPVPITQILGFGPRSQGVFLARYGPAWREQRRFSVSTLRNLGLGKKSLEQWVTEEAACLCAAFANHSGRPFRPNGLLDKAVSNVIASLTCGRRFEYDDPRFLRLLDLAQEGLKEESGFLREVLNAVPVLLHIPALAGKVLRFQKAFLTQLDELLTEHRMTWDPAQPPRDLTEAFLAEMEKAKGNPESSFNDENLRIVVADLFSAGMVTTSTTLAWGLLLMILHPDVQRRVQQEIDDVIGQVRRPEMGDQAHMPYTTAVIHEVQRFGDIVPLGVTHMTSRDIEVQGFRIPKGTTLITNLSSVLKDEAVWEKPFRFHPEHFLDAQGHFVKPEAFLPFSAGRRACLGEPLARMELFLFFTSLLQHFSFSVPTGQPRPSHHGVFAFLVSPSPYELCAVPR", "assay": "not given", "settings": "not given", "values": [{"smiles": "O=C(c1ccco1)N1CCC[C@@]2(CCN(Cc3nccs3)C2)C1", "AC50": "10 µM (inconclusive)"}, {"smiles": "Cc1cc(C(=O)NCc2ccccc2)no1", "AC50": "20 µM (inconclusive)"}, {"smiles": "COC(=O)[C@@]1(Cc2ccc(F)cc2)[C@H]2c3cc(C(=O)N4CCCC4)n(Cc4ccc(C)o4)c3C[C@H]2CN1C(=O)c1ccccc1", "AC50": "39.8 µM (inconclusive)"}]}, {"molecular_target": "T2, Cytochrome P450 1A2 (Homo sapiens, UniProt P05177)", "T2 sequence (P05177 whole entry)": "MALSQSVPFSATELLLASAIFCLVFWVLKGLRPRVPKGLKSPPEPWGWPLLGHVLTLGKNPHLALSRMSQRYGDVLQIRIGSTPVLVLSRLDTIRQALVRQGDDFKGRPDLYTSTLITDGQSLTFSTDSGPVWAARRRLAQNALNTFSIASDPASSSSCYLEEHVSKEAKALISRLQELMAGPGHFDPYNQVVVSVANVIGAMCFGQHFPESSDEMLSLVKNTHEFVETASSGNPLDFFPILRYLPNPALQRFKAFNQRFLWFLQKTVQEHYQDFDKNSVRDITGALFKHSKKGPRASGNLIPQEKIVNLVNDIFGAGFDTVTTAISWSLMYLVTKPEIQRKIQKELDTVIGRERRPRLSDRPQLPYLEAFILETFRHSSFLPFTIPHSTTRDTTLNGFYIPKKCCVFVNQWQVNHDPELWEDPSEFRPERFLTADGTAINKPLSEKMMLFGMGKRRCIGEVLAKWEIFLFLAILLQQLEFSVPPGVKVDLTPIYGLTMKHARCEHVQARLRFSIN", "assay": "not given", "settings": "not given", "values": [{"smiles": "COc1ccc(Oc2ncc3nc(-c4ccc(F)cc4)c(=O)n(Cc4cccs4)c3n2)cc1", "AC50": "5.01 µM (inconclusive)"}, {"smiles": "Cc1cc(C(=O)NCc2ccccc2)no1", "AC50": "0.398 µM (inconclusive)"}, {"smiles": "COC(=O)[C@@]1(Cc2ccc(F)cc2)[C@H]2c3cc(C(=O)N4CCCC4)n(Cc4ccc(C)o4)c3C[C@H]2CN1C(=O)c1ccccc1", "AC50": "10 µM (inconclusive)"}, {"smiles": "COCCn1c(=O)c(-c2cccc(C#N)c2)nc2cnc(N3CCN(C)CC3)nc21", "AC50": "15.8 µM (inconclusive)"}, {"smiles": "O=C(CSc1nnnn1C1CCCC1)Nc1ccc(F)cc1", "AC50": "25.1 µM (inconclusive)"}]}, {"molecular_target": "Cytochrome P450 3A4 (Homo sapiens, UniProt P08684)", "sequence (P08684 whole entry)": "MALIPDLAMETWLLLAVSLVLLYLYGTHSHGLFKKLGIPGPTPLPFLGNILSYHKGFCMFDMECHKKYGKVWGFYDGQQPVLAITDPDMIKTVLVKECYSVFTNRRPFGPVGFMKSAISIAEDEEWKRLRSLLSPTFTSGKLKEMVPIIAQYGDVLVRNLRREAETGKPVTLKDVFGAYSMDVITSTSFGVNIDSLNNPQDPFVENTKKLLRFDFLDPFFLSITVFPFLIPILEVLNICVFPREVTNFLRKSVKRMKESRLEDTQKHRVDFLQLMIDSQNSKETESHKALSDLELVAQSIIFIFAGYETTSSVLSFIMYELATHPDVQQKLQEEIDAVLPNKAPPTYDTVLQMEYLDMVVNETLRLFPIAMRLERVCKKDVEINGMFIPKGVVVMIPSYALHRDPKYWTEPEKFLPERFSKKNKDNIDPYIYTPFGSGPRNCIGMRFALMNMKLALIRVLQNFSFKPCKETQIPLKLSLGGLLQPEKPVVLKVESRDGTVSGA", "assay": "not given", "settings": "not given", "values": [{"smiles": "O=C(c1ccco1)N1CCC[C@@]2(CCN(Cc3nccs3)C2)C1", "AC50": "7.94 µM (inconclusive)"}, {"smiles": "Cc1ccc(N2C(=O)/C(=C/N3CCN(C(=O)c4ccco4)CC3)C(=O)NC2=S)cc1C", "AC50": "25.1 µM (inconclusive)"}, {"smiles": "Cc1cccc(C)c1NC(=O)C[S+]([O-])CC(=O)NCCCc1ccccc1", "note": "(centres undefined)", "AC50": "14.1 µM (inconclusive)"}]}, {"molecular_target": "Cytochrome P450 2C9 (Homo sapiens, UniProt P11712)", "sequence (P11712 whole entry)": "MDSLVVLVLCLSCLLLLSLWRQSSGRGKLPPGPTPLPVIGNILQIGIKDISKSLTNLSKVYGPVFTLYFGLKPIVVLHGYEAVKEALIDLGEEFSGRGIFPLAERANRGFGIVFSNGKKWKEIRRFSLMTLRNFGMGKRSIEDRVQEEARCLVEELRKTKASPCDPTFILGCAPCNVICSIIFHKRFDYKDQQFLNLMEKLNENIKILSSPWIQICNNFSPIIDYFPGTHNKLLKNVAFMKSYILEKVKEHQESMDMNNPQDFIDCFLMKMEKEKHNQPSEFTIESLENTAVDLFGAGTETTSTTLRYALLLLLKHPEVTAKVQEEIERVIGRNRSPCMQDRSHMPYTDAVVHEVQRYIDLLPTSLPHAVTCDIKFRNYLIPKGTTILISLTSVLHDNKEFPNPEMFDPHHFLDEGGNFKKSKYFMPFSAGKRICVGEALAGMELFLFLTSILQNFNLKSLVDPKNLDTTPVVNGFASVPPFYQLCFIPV", "assay": "not given", "settings": "not given", "values": [{"smiles": "CCS(=O)(=O)c1ccc2c(c1)N(S(C)(=O)=O)CC(C(=O)NCCOC)O2", "note": "(centres undefined)", "AC50": "35.5 µM (inconclusive)"}, {"smiles": "Cc1ccc(C(OC(=O)c2ccco2)C(=O)NC2CCCCC2)cc1", "note": "(centres undefined)", "AC50": "39.8 µM (inconclusive)"}, {"smiles": "Cc1ccc(N2C(=O)/C(=C/N3CCN(C(=O)c4ccco4)CC3)C(=O)NC2=S)cc1C", "AC50": "20 µM (inconclusive)"}, {"smiles": "O=C(N/N=C/c1ccc2c(c1)OCO2)/C(=C/c1ccc2c(c1)OCO2)NC(=O)c1ccccc1", "AC50": "12.6 µM (inconclusive)"}, {"smiles": "COc1ccc(Oc2ncc3nc(-c4ccc(F)cc4)c(=O)n(Cc4cccs4)c3n2)cc1", "AC50": "3.16 µM (inconclusive)"}, {"smiles": "COCCn1c(=O)c(-c2cccc(C#N)c2)nc2cnc(N3CCN(C)CC3)nc21", "AC50": "3.98 µM (inconclusive)"}, {"smiles": "Cc1cccc(C)c1NC(=O)C[S+]([O-])CC(=O)NCCCc1ccccc1", "note": "(centres undefined)", "AC50": "22.4 µM (inconclusive)"}, {"smiles": "CN(C)c1ccc(/C=C2/C(=O)Nc3ccccc32)cc1", "AC50": "39.8 µM (inconclusive)"}, {"smiles": "Cc1noc(COc2ccc(OCc3nc(C)no3)cc2)n1", "AC50": "39.8 µM (inconclusive)"}, {"smiles": "O=C(CSc1nnnn1C1CCCC1)Nc1ccc(F)cc1", "AC50": "31.6 µM (inconclusive)"}]}]}
